{"source": "patent US8569580B2", "about": "“Transformed plants or algae with highly expressed chloroplast protein BPG2” (Riken, priority 2010, dated 2013)", "key": {"[1]": {"tested_on": "Arabidopsis thaliana seedlings", "experiment": "Measurement of chlorophyll a and b in seedlings", "format": "in vivo", "details": "4 days, long days", "method": "Arabidopsis thaliana Columbia-0 (Col-0) was used as the wild type. For cotyledon analysis, plants were germinated and grown on ½ MS medium (Duchefa) containing 1.5% sucrose and 0.9% phytoagar (Duchefa), with or without Brz. Germinated plants were transferred to soil. Conditions in the growth chamber were 16 h light (100 μE m^−2 sec^−1 white light)/8 h dark at 22° C. […] Plants were homogenized in 80% (v/v) acetone. The chlorophyll content of the centrifuged supernatants was determined at 645 nm and 663 nm. Chlorophyll a and b content were determined according to Arnon (1949): Chlorophyll a (μg/mg fresh weight)=(12.7A663−[…])/mg fresh weight Chlorophyll b (μg/mg fresh weight)=(22.9A645−4.67A663)/mg fresh weight"}, "[2]": {"tested_on": "Arabidopsis thaliana seedlings", "experiment": "Immunoblot analysis of chloroplast proteins", "format": "in vivo", "details": "1 μM Brz", "method": "of wild type, bpg2-1, and bpg2-2 were ground in liquid nitrogen and extracted by boiling with two volumes/fresh weight of 1× Laemmli buffer [50 mM Tris-HCl (pH 6.8), 100 mM DTT, 2% (w/v) SDS, 0.1% (w/v) bromophenol blue, and 10% (w/v) glycerol] for immunoblot analysis of Rubisco LSU, SSU, and LHCP. Total proteins for immunoblot analysis of D1 protein were prepared as described (Nakajima et al., 1996). Proteins were separated by SDS-PAGE (12.5% acrylamide separating gel). After electrophoresis, the proteins were stained with Coomassie Brilliant Blue or electrophoretically transferred to Hybond ECL nitrocellulose membrane (Amersham). After blocking overnight in TBS (20 mM Tris, 0.137 M NaCl, pH7.4, 0.05% polyoxyethlene sorbital monolaurate) buffer containing 5% non-fat milk (Morinagamilk) at room temperature, the membrane was incubated in TBS buffer containing non-fat milk with polyclonal antibody for 1 h at room temperature. After washing in TBS buffer, the blots were incubated with horseradish peroxidase-conjugated secondary antibody (Promega for Rubisco L/S and LHCP, and Cosmo Bio for D1) for 1 h at room temperature, and the complexes were made visible with ECL Immoblin Western (Millipore). The polyclonal antibody against the tobacco Rubisco L/S complex was provided by F. Sato of Kyoto University. The polyclonal antibody against D1 and LHCP protein was obtained from Agrisera. LAS-4000 mini (Fuji Film) was used for detection.\nTo analyze BPG2 function with BR on chloroplast protein accumulation, we performed immunoblot analysis seedlings of wild type and bpg2 mutants in the light with and without Brz (FIG. 10). In wild type, Rubisco LSU protein from Brz-treated seedlings increased about 1.4-fold and D1 protein increased about 1.3-fold compared to that of no-Brz seedlings (FIG. 10a, b). […] The effect of BPG2 deficiency on LHCP protein was much smaller than on D1 and Rubisco LSU."}, "wild-type Arabidopsis": {"tested_on": "wild-type Arabidopsis", "experiment": "RT-PCR analysis of gene expression in dark-grown plants with Brz", "format": "in vivo, Arabidopsis thaliana", "details": "wild type grown in the dark 7 days with Brz 0.1, 1, 3 μM", "text": "FIG. 6. Inducible expression of BPG2 by light and Brz. (a) RT-PCR analysis of BPG2 gene expression in different organs: root (R), stem (S), rosette leaf blade (LB), rosette leaf petiole (LP), cauline leaves (CL), and flowers (F) of wild-type Arabidopsis. ACT2 served as an internal control. (b) RT-PCR analysis of expression of BPG2, CAB, and rbcS after exposure to light. Total RNAs were extracted from the wild type germinated in the dark for 7 days and exposed to light for 0 (lane 1, 0), 0.5 (lane 2, 0.5), 1 (lane 3, 1), 2 (lane 4, 2), or 4 h (lane 5, 4), and from 7-day-old wild type under long-day conditions (16 h light and 8 h dark; lane 6, L). (c) RT-PCR analysis of expression of BPG2, CAB, rbcS, and DWF4 on Brz. Total RNAs were extracted from wild type germinated in the dark for 7 days with Brz.\nTotal RNA was extracted from wild type and bpg2 mutants with the RNeasy Plant mini kit (Qiagen). First strand cDNA was synthesized with Super Script III first-strand cDNA synthesis for RT (Invitrogen) and used as template. RT-PCR was performed with Ex Taq (Takara Bio). […]"}, "[3]": {"tested_on": "Arabidopsis bpg2 mutants and wild type", "experiment": "Northern blot analysis of photosynthesis gene expression", "format": "in vivo, Arabidopsis thaliana", "details": "bpg2 mutants versus wild type, dark grown 5-day seedlings, 1 μM Brz", "method": "FIG. 7. Chloroplast gene expression in bpg2 mutants. Total RNA was extracted from light grown 4-day-old seedlings (a), 3-week-old rosette leaves (b) and dark grown 5-day-seedling (c) of wild type (WT), bpg2-1, and bpg2-2. Northern blot analysis was carried out using probes for psbA and rbcL, encoded in the chloroplast, and rbcS, CAB, and 18S rRNA, encoded in the nucleus. (c) Seedlings were germinated with 0 or 1 μM Brz in the dark.\nTotal RNA was extracted from light grown 4-day-old seedlings, 3-week-old rosette leaves and dark grown 5-day-old seedlings of wild type, bpg2-1 and bpg2-2 with the RNeasy Plant Mini kit (Qiagen). Total RNA (3 μg) was separated in 1.2% agarose/0.66 M formaldehyde gels and blotted on Hybond N^+ (Amersham). After transfer, the ECL Direct Nucleic Acid Labeling and Detection system (GE Healthcare) was used for hybridization, and LAS-4000 mini (Fuji Film) was used for analysis of chemical fluorescence."}, "Arabidopsis bpg2-1": {"tested_on": "Arabidopsis bpg2-1", "experiment": "Hypocotyl phenotype when grown with Brz in the dark", "format": "in vivo, Arabidopsis thaliana", "details": "bpg2-1 grown with Brz in the dark (data not shown)"}, "[4]": {"biological_target": "cytochrome P450 steroid C-22 hydroxylase encoded by the DWF4 gene (Arabidopsis thaliana, UniProt O64989)", "sequence (O64989 whole entry)": "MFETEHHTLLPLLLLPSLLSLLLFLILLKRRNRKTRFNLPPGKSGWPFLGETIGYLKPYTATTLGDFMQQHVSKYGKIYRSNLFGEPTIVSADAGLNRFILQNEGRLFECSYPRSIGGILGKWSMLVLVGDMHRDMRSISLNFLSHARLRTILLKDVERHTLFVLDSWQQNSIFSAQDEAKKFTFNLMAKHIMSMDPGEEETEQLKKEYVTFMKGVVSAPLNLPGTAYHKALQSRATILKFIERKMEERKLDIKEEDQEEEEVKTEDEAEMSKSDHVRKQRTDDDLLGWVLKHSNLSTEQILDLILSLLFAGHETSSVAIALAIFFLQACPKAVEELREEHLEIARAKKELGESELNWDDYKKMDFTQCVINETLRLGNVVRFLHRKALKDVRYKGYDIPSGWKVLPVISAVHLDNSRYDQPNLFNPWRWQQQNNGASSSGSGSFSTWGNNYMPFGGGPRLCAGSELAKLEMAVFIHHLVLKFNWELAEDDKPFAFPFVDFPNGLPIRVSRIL", "details": "Asami et al., 2000, 2001; cited from earlier work"}, "[5]": {"details": "wild type, germinated in the light for 3 days"}}, "data": [{"smiles": "CC(O)(c1ccccc1)C(Cc1ccc(Cl)cc1)n1cncn1", "note": "(centres unmarked) [Brz, brassinazole]", "values": [{"measurement": "chlorophyll levels following Brz treatment", "setting": "[1]; bpg2:35S-BPG2 transformants, Brz 1 μM", "value": "increase in chlorophyll levels"}, {"measurement": "endogenous chlorophyll a and b levels", "setting": "[1]; wild-type seedlings, Brz 0.1 and 1 μM, light", "value": "increased"}, {"measurement": "D1 protein of Brz-treated seedlings", "setting": "[2]; bpg2 mutants, light 3 days", "value": "the same as in no-Brz seedlings"}, {"measurement": "Rubisco LSU protein of Brz-treated seedlings", "setting": "[2]; bpg2 mutants, light 3 days", "value": "the same as in no-Brz seedlings"}, {"measurement": "induction of Rubisco LSU protein and D1 protein by Brz", "setting": "[2]; clpB3 and clpC1 mutants, light 3 days", "value": "no induction"}, {"measurement": "D1 protein, Brz-treated compared to no-Brz seedlings", "setting": "[2]; [5]", "value": "about 1.3 fold"}, {"measurement": "Rubisco LSU protein, Brz-treated compared to no-Brz seedlings", "setting": "[2]; [5]", "value": "about 1.4 fold"}, {"measurement": "Rubisco SSU protein", "setting": "[2]; wild type, light 3 days", "value": "increased"}, {"measurement": "nuclear encoded-LHCP protein", "setting": "[2]; wild type, light 3 days", "value": "increased"}, {"measurement": "BPG2 gene expression", "setting": "wild-type Arabidopsis", "value": "actually increased"}, {"measurement": "expression of CAB and rbcS", "setting": "wild-type Arabidopsis", "value": "increased"}, {"measurement": "expression of psbA, rbcL, CAB and rbcS", "setting": "[3]", "value": "to the same degree in bpg2 mutants as in wild type"}, {"measurement": "hypocotyl phenotype", "setting": "Arabidopsis bpg2-1", "value": "same short hypocotyl as the wild type plants"}, {"measurement": "binding to cytochrome P450 steroid C-22 hydroxylase (DWF4)", "setting": "[4]", "value": "binds directly"}]}]}
